Source: patent US20240190880A1 (THE REGENTS OF THE UNIVERSITY OF MICHIGAN, priority 2021, published 2024)

target: T1, ER (Homo sapiens, UniProt P03372); test: ER degradation activity, in-cell western blot analysis in T47D cells; type: cell-based; conditions: 16 hours, Table A does not say which cell line (T47D or MCF7), read-out: Potency (DC50)
T1 construct: host or cells: T47D and MCF7 human breast cancer cells
T1 sequence (P03372 1-595): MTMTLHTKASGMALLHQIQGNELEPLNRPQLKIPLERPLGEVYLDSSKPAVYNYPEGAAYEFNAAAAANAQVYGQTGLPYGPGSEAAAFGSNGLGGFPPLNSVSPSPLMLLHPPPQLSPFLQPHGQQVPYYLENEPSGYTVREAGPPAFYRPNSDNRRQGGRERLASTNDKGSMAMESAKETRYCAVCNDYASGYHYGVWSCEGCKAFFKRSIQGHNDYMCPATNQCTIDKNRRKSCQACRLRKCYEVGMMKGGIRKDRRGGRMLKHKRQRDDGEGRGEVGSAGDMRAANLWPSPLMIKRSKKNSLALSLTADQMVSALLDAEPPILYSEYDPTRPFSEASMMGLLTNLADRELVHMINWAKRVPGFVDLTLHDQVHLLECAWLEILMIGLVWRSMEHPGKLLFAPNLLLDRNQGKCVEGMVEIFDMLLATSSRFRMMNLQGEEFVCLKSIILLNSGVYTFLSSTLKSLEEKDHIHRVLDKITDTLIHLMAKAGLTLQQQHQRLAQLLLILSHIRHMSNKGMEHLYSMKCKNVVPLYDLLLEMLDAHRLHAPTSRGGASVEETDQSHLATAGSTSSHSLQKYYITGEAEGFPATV
Method in brief: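 Read-out is near-infrared fluorescence from an in-cell western, expressed as ER percentage relative to untreated and DMSO controls taken as 100%. T47D breast cancer cells received compound for 16 h in 0.5% DMSO.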

Row | Structure (SMILES) | DC50 [nM]
1 | C[C@@H]1Cc2c([nH]c3ccccc23)[C@@H](c2c(F)cc(N3CC4(CCN4CC(=O)N4Cc5cc6c(cc5C4)C(=O)N(C4CCC(=O)NC4=O)C6)C3)cc2F)N1CC(F)F (stereo partly drawn) [E 61, 3-(6-(2-(6-(4-((1R,3R)-2-(2,2-difluoroethyl)-3-methyl-2,3,4,9-tetrahydro-1H-pyrido[3,4-b]indol-1-yl)-3,5-difluorophenyl)-1,6-diazaspiro[3.3]heptan-1-yl)acetyl)-1-oxo-3,5,6,7-tetrahydropyrrolo[3,4-f]isoindol-2(1H)-yl)piperidine-2,6-dione] | > 100
2 | C[C@@H]1Cc2c([nH]c3ccccc23)[C@@H](c2c(F)cc(N3CCC(N4CCN(CC(=O)N5Cc6cc7c(cc6C5)C(=O)N(C5CCC(=O)NC5=O)C7=O)CC4)CC3)cc2F)N1CC(F)F (stereo partly drawn) [E 95, 6-(2-(4-(1-(4-((1R,3R)-2-(2,2-difluoroethyl)-3-methyl-2,3,4,9-tetrahydro-1H-pyrido[3,4-b]indol-1-yl)-3,5-difluorophenyl)piperidin-4-yl)piperazin-1-yl)acetyl)-2-(2,6-dioxopiperidin-3-yl)-6,7-dihydropyrrolo[3,4-f]isoindole-1,3(2H,5H)-dione] | < 10
3 | O=C1CCC(N2C(=O)c3cc4c(cc3C2=O)CN(CC(=O)N2CCC3(CC2)CCN(c2ncc([C@@H]5c6ccc(O)cc6CC[C@@H]5c5ccccc5)cn2)CC3)C4)C(=O)N1 (mixture of isomers) [E 298, Rac-2-(2,6-dioxopiperidin-3-yl)-6-(2-(9-(5-((1S,2S)-6-hydroxy-2-phenyl-1,2,3,4-tetrahydronaphthalen-1-yl)pyrimidin-2-yl)-3,9-diazaspiro[5.5]undecan-3-yl)-2-oxoethyl)-6,7-dihydropyrrolo[3,4-f]isoindole-1,3(2H,5H)-dione] | > 100
4 | C[C@@H]1Cc2c([nH]c3ccccc23)[C@@H](c2c(F)cc(N3CC4(CC(C(=O)N5CCC(CN6Cc7cc8c(cc7C6)C(=O)N(C6CCC(=O)NC6=O)C8=O)CC5)C4)C3)cc2F)N1CC(F)F (stereo partly drawn) [E 115, 6-((1-(2-(4-((1R,3R)-2-(2,2-difluoroethyl)-3-methyl-2,3,4,9-tetrahydro-1H-pyrido[3,4-b]indol-1-yl)-3,5-difluorophenyl)-2-azaspiro[3.3]heptane-6-carbonyl)piperidin-4-yl)methyl)-2-(2,6-dioxopiperidin-3-yl)-6,7-dihydropyrrolo[3,4-f]isoindole-1,3(2H,5H)-dione] | < 10

The remaining lines, values ahead:

Row | DC50 [nM] | Structure (SMILES)
5 | > 100 | O=C1CCC(N2C(=O)c3cc4c(cc3C2=O)CN(Cc2ccc(N3CC(Nc5ccc([C@@H]6c7ccc(O)cc7CC[C@@H]6c6ccccc6)cc5)C3)nc2)C4)C(=O)N1 (stereo partly drawn) [E 373, 2-(2,6-dioxopiperidin-3-yl)-6-((6-(3-((4-((1R,2S)-6-hydroxy-2-phenyl-1,2,3,4-tetrahydronaphthalen-1-yl)phenyl)amino)azetidin-1-yl)pyridin-3-yl)methyl)-6,7-dihydropyrrolo[3,4-f]isoindole-1,3(2H,5H)-dione]
6 | 10 to 100 | C[C@@H]1Cc2c([nH]c3ccccc23)[C@@H](c2c(F)cc(C3CCC(CN4CCC(N5Cc6cc7c(cc6C5)C(=O)N(C5CCC(=O)NC5=O)C7)CC4)CC3)cc2F)N1CC(F)F (stereo partly drawn) [E 308, 3-(6-(1-((4-(4-((1R,3R)-2-(2,2-difluoroethyl)-3-methyl-2,3,4,9-tetrahydro-1H-pyrido[3,4-b]indol-1-yl)-3,5-difluorophenyl)cyclohexyl)methyl)piperidin-4-yl)-1-oxo-3,5,6,7-tetrahydropyrrolo[3,4-f]isoindol-2(1H)-yl)piperidine-2,6-dione]
7 | > 100 | C[C@@H]1Cc2cc(O)ccc2[C@@H](c2c(F)cc(N3CCN(C(=O)[C@H]4CC[C@@H](N5Cc6cc7c(cc6C5)C(=O)N(C5CCC(=O)NC5=O)C7=O)CC4)CC3)cc2F)N1CC(F)F (mixture of isomers) [E 352, Rac-6-((1R,4s)-4-(4-(4-((1S,3R)-2-(2,2-difluoroethyl)-6-hydroxy-3-methyl-1,2,3,4-tetrahydroisoquinolin-1-yl)-3,5-difluorophenyl)piperazine-1-carbonyl)cyclohexyl)-2-(2,6-dioxopiperidin-3-yl)-6,7-dihydropyrrolo[3,4-f]isoindole-1,3(2H,5H)-dione]
